system: A2780; experiment: Antiproliferative activity against human A2780 cells after 72 hrs; assay type: functional, cell-based; conditions: A2780, 72 h

Row | Compound | IC50 [nM]
1 | Nc1ncc(Br)c(-c2cc3c([nH]2)CCNC3=O)n1 | 800
2 | O=C1NCCc2[nH]c3c(ccc4cnccc43)c21 | 100
3 | O=C1NCCc2[nH]c(-c3ccncn3)cc21 | 5500
4 | O=C1NCc2[nH]c(-c3ccncc3)cc21 | 4700
5 | O=C1NCCc2[nH]c(-c3ccncc3F)cc21 | 200
6 | O=C1NCCc2[nH]c(-c3ccnc4[nH]ccc34)cc21 | > 10000
7 | Nc1cc(-c2cc3c([nH]2)CCNC3=O)ccn1 | > 10000

target: Cell division cycle 7-related protein kinase (Homo sapiens, UniProt O00311); conditions: not given
Sequence (O00311 whole entry): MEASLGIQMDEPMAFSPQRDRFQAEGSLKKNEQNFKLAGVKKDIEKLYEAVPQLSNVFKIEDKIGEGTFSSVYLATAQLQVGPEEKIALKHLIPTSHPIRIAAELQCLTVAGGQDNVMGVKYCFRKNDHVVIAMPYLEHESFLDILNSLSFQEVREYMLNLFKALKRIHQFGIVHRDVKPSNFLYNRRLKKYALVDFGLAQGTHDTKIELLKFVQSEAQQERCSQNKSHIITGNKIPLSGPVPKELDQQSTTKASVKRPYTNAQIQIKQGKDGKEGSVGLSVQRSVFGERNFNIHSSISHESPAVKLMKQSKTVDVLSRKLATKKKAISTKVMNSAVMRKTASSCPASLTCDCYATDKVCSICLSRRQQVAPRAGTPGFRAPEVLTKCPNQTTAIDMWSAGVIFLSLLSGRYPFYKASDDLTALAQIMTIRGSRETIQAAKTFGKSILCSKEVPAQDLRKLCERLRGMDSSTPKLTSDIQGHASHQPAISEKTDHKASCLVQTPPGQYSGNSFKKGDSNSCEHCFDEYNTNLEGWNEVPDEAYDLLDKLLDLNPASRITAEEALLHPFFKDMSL

Row | Compound | IC50 [nM]
8 | Nc1nccc(-c2cc3c(n2CCF)CCNC3=O)n1 | 3
9 | Cc1c(-c2ccncc2)[nH]c2c1C(=O)NCC2 | 45
10 | Nc1nccc(-c2c[nH]c3c2C(=O)NCC3)n1 | > 5000
11 | O=C1NCCCc2[nH]c(-c3ccncc3)cc21 | 158
12 | O=C(Nc1nccc(-c2cc3c([nH]2)CCNC3=O)n1)c1ccccc1 | 262
13 | Nc1nccc(-c2cc3c(n2CCO)CCNC3=O)n1 | 138
14 | O=C1NCCc2c1cc(-c1ccncc1)n2CC(F)(F)F | 160
15 | Nc1nccc(-c2cc3c([nH]2)CCNC3=O)n1 | 7
16 | O=C1NCCc2[nH]c(-c3ccnc(NCC4CCCCC4)n3)cc21 | 655
17 | Cn1c(-c2ccnc(N)n2)cc2c1CCNC2=O | 88
18 | CCCCn1c(-c2ccnc(N)n2)cc2c1CCNC2=O | 23
19 | CN1CCC(n2c(-c3ccnc(N)n3)cc3c2CCNC3=O)CC1 | 120
20 | Nc1nccc(-c2cc3c(n2CCCC(F)(F)F)CCNC3=O)n1 | 47
21 | Nc1nccc(-c2cc3c(n2Cc2ccccc2)CCNC3=O)n1 | 290
22 | Nc1nccc(-c2cc3c(n2CC2CC2)CCNC3=O)n1 | 4
23 | CCCNc1nccc(-c2cc3c([nH]2)CCNC3=O)n1 | 259
24 | Nc1ncc(Br)c(-c2cc3c([nH]2)CCNC3=O)n1 | 4
25 | O=C1NCCc2[nH]ccc21 | > 5000
26 | CCn1c(-c2ccncc2)cc2c1CCNC2=O | 67
27 | O=C1NCCc2[nH]c3c(ccc4cnccc43)c21 | 2
28 | O=C1NCCc2[nH]c(-c3ccncn3)cc21 | 20
29 | CC(C)Cn1c(-c2ccnc(N)n2)cc2c1CCNC2=O | 13
30 | Nc1nccc(-c2cc3c(n2C2CCC2)CCNC3=O)n1 | 14

Row | Compound | IC50 [nM]
31 | O=C1NCc2[nH]c(-c3ccncc3)cc21 | 27
32 | CC(C)n1c(-c2ccnc(N)n2)cc2c1CCNC2=O | 42
33 | Nc1nccc(-c2cc3c(n2-c2ccccc2)CCNC3=O)n1 | > 5000
34 | Nc1nccc(-c2cc3c(n2CC(F)(F)F)CCNC3=O)n1 | 5
35 | O=C1NCCc2[nH]c(-c3ccnc(NCc4ccccc4)n3)cc21 | 220
36 | O=C1NCCc2[nH]c(-c3ccncc3F)cc21 | 9
37 | CCCn1c(-c2ccnc(N)n2)cc2c1CCNC2=O | 12
38 | CC(C)C(=O)Nc1nccc(-c2cc3c([nH]2)CCNC3=O)n1 | 1400
39 | CCn1c(-c2ccnc(N)n2)cc2c1CCNC2=O | 8
40 | CC(=O)Nc1nccc(-c2cc3c([nH]2)CCNC3=O)n1 | 323
41 | Nc1nccc(-c2cc3c(n2C2CCCCC2)CCNC3=O)n1 | > 5000
42 | O=C1NCCc2[nH]c(-c3ccnc4[nH]ccc34)cc21 | 14
43 | O=C1NCCc2oc(-c3ccncc3)cc21 | 201
44 | Cn1c(-c2ccncc2)cc2c1CCNC2=O | 404
45 | O=C1NCCn2nc(-c3ccncc3)cc21 | 210
46 | CC(C)CNc1nccc(-c2cc3c([nH]2)CCNC3=O)n1 | 636
47 | O=CN1CCc2[nH]c(-c3ccncc3)cc2C1=O | 863
48 | O=C1NCCc2[nH]c(-c3ccccc3)cc21 | > 5000
49 | O=C1NCCc2[nH]c(-c3cccnc3)cc21 | > 5000
50 | Nc1cc(-c2cc3c([nH]2)CCNC3=O)ccn1 | 28
51 | O=C1NCCc2[nH]c(-c3ncnc4[nH]cnc34)cc21 | 178
52 | O=C1NCCc2c1cc(-c1ccncc1)n2CCO | 3300
